# Laboratory results from ChEMBL document CHEMBL4130589, “Synthesis of Novel Selenides Bearing Benzenesulfonamide Moieties as Carbonic Anhydrase I, II, IV, VII, and IX Inhibitors” (ACS Med Chem Lett, 2017).
# pKi: −log10 of the molar value.
# Molecular target: Carbonic anhydrase 9 (Homo sapiens, UniProt Q16790)
# Assay: Inhibition of recombinant human carbonic anhydrase 9 incubated for 15 mins by stopped flow CO2 hydrase assay
row,Compound,pKi
1,N#C[Se]c1ccc(S(N)(=O)=O)cc1,8.03
2,CC(C)OCC(O)C[Se]c1ccc(S(N)(=O)=O)cc1 (stereo not drawn),7.80
3,NS(=O)(=O)c1ccc([Se][Se]c2ccc(S(N)(=O)=O)cc2)cc1,8.57
4,Cc1ccc(S(=O)(=O)N[C@H](C[Se]c2ccc(S(N)(=O)=O)cc2)C(C)C)cc1,8.00
5,C=C(C)[C@@H]1CCC(C)(O)C([Se]c2ccc(S(N)(=O)=O)cc2)C1 (stereo partly drawn),8.62
6,CC(C)[C@@H](C[Se]c1ccc(S(N)(=O)=O)cc1)NC(=O)OC(C)(C)C,8.64
7,CCCCC(O)C[Se]c1ccc(S(N)(=O)=O)cc1 (stereo not drawn),8.25
8,Cc1ccc(S(=O)(=O)N[C@H](C[Se]c2ccc(S(N)(=O)=O)cc2)Cc2ccccc2)cc1,8.62
9,C=CCOCC(O)C[Se]c1ccc(S(N)(=O)=O)cc1 (stereo not drawn),7.92
10,NS(=O)(=O)c1ccc([Se]C2CCCCC2O)cc1 (stereo not drawn),8.08
11,CC(C)[C@H](N)C[Se]c1ccc(S(N)(=O)=O)cc1,8.62
12,NS(=O)(=O)c1ccc([Se]CC(O)CBr)cc1 (stereo not drawn),8.19
13,NS(=O)(=O)c1ccc([Se]CC(O)COCc2ccccc2)cc1 (stereo not drawn),8.00
